Data reported in patent publication US11492589B2, “Lactobacillus plantarum CJLP475 strain having antiviral and immunomodulatory effects and composition comprising the same” (CJ CHEILJEDANG CORPORATION, priority 2018, dated 2022).

Tested on: Lactobacillus plantarum CJLP475 strain
Experiment: Antibiotic susceptibility test with antibiotic discs
Format: cell-based
Conditions: antibiotic discs on solid Mueller Hinton II medium, 37° C., 24 hours
Method: The CJLP475 strain was inoculated into a liquid MRS medium and subjected to a static culture at 37° C. for 24 hours. The thus-cultured bacteria were soaked in sterilized cotton swabs and smeared on a solid Mueller Hinton II medium (Difco), and then antibiotic discs were placed on the medium and incubated at 37° C. for 24 hours. Ampicillin, clindamycin, gentamicin, kanamycin, erythromycin, ampicillin/sulbactam, chloramphenicol, and streptomycin discs (Oxoid, UK) were used as antibiotic discs for the antibiotic test.

Compound | Radius of Growth Inhibition Area Centered Around Antibiotics [mm]
CC[C@H]1OC(=O)[C@H](C)[C@@H](O[C@H]2C[C@@](C)(OC)[C@@H](O)[C@H](C)O2)[C@H](C)[C@@H](O[C@@H]2O[C@H](C)C[C@H](N(C)C)[C@H]2O)[C@](C)(O)C[C@@H](C)C(=O)[C@H](C)[C@@H](O)[C@]1(C)O [E15 (Erythromycin), Erythromycin] | 9
CCC[C@@H]1C[C@@H](C(=O)N[C@@H]([C@H]2O[C@H](SC)[C@H](O)[C@@H](O)[C@H]2O)[C@H](C)Cl)N(C)C1 [C30 (Clindamycin), Clindamycin] | 8
O=C(N[C@H](CO)[C@H](O)c1ccc([N+](=O)[O-])cc1)C(Cl)Cl [S10 (Chloramphenicol), Chloramphenicol] | 3
CC1(C)S[C@@H]2[C@H](NC(=O)[C@H](N)c3ccccc3)C(=O)N2[C@H]1C(=O)O [Amp10 (Ampicillin), Ampicillin] | 7
Gentamicin [CN120 (Gentamicin)] | 9
[H]/N=C(/N)N[C@H]1[C@H](O)[C@@H](O)[C@H](O[C@@H]2O[C@@H](C)[C@](O)(C=O)[C@H]2O[C@@H]2O[C@@H](CO)[C@H](O)[C@@H](O)[C@@H]2NC)[C@@H](N/C(N)=N\[H])[C@@H]1O [DA2 (Streptomycin), Streptomycin] | 4
Ampicillin/Sulbactam [SAM20 (Ampicillin/Sulbactam)] | 8
NC[C@H]1O[C@H](O[C@H]2[C@H](O)[C@@H](O[C@H]3O[C@H](CO)[C@@H](O)[C@H](N)[C@H]3O)[C@H](N)C[C@@H]2N)[C@H](O)[C@@H](O)[C@@H]1O [K30 (Kanamycin), Kanamycin] | 1.5
